Assay results published in US20230192617A1, “AZABICYCLIC(THIO)AMIDES AS FUNGICIDAL COMPOUNDS” (Bayer CropScience Aktiengesellschaft, priority 2020, published 2023).

How the values were obtained:
Botrytis cinerea [1] = experiment: B-11. Botrytis cinerea in vitro cell test; format: cell-based; settings: 144 h, 20 ppm of active ingredient, 6 days incubation, liquid culture, absorbance, read-out: efficacy (inhibition of fungal growth)
How it was run: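 B. cinerea spores were grown in liquid culture with compound (DMSO ≤1% final). Mycelium growth was measured spectrometrically after 6 days, with inhibition taken as absorbance relative to untreated control wells.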

Septoria tritici = experiment: B-9. Septoria tritici in vitro cell test; format: cell-based; settings: Zymoseptoria tritici, 168 h; 20 ppm of active ingredient; 7 days incubation; liquid culture, absorbance; read-out: efficacy (inhibition of fungal growth)
Method: B-9. Septoria tritici In Vitro Cell Test [table] Fungicides were solubilized in DMSO and the solution used to prepare the required range of concentrations. The final concentration of DMSO used in the assay was ≤1%. A spore suspension of S. tritici was prepared and diluted to the desired spore density. Fungicides were evaluated for their ability to inhibit spore germination and mycelium growth in liquid culture assay. The compounds were added in the desired concentration to the culture medium with spores. After 7 days incubation, fungi-toxicity of compounds was determined by spectrometric measurement of mycelium growth. Inhibition of fungal growth was determined by comparing the absorbance values in wells containing the fungicides with the absorbance in control wells without fungicides.

Alternaria alternata = Alternaria alternata in vitro cell test; format: cell-based; settings: 120 h, 20 ppm of active ingredient, liquid culture, 5 days incubation, spectrometric measurement of mycelium growth, read-out: efficacy (inhibition of fungal growth)
How it was run: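 Spectrometric readout of mycelial growth after 5-day incubation gauged compound effects on spore germination and growth of A. alternata in liquid medium. Compounds were delivered in DMSO at ≤1% final. Absorbance was compared with untreated controls to give inhibition.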

Pyrenophora teres [2] = experiment: B-10. Pyrenophora teres in vitro cell test; format: cell-based; settings: 144 h, 20 ppm of active ingredient, 6 days incubation, liquid culture, absorbance, read-out: efficacy (inhibition of fungal growth)
How it was run: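 Liquid-culture assay on a P. teres spore suspension with compounds added to the medium from DMSO solutions, final DMSO ≤1%. Mycelium growth read spectrometrically after 6 days. Inhibition calculated from absorbance against untreated control wells.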

Botrytis cinerea [3] = experiment: In vivo preventive test on Botrytis cinerea (grey mould); settings: 500 ppm of active ingredient, preventive spray on gherkin or cabbage, evaluated 4 to 5 days after inoculation, read-out: efficacy
How it was run: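 Preventive spray on cabbage or gherkin seedlings, with compound formulated in DMSO/acetone/Tween 80 and water-diluted, preceded spore inoculation by 24 hours. Cabbage was held 4 to 5 days at 20° C., 100% relative humidity; gherkin 4 to 5 days at 17° C., 90% relative humidity.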

[4] = system: Colletotrichum lindemuthianum; experiment: In vivo preventive test on Colletotrichum lindemuthianum (leaf spot on bean); settings: 168 h, 500 ppm of active ingredient, preventive spray on bean, evaluated 7 days after inoculation, read-out: efficacy
How it was run: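 Young bean plants sprayed with compound in DMSO/acetone/Tween 80 diluted in water; solvent-only controls. Inoculated 24 h later with C. lindemuthianum spore suspension, then kept 24 h at 20 °C/100% RH and 6 days at 20 °C/90% RH.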

[5] = system: Colletotrichum lindemuthianum; experiment: B-8. Colletotrichum lindemuthianum in vitro cell test; format: cell-based; settings: 144 h, 20 ppm of active ingredient, 6 days incubation, liquid culture, absorbance, read-out: efficacy (inhibition of fungal growth)
How it was run: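 Liquid-culture germination/growth test: compounds in ≤1% final DMSO were added to spore-containing medium. Fungal growth was quantified spectrophotometrically after 6 days of incubation and expressed as inhibition versus untreated controls.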

[6] = Measurement of Log P values by HPLC on reversed phase columns (EEC directive 79/831 Annex V.A8); format: physicochemical; settings: reversed phase HPLC column, method [a]: LC-UV, acidic range, 0.1% formic acid in water and acetonitrile as eluent
How it was run: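 Log P derived from retention on reversed-phase columns (EEC directive 79/831 Annex V.A8), LC-UV, acetonitrile gradient 10% to 95% against water containing 0.1% formic acid, 0.001 M ammonium acetate, or 0.1% phosphoric acid; several values per method separated by "+".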

Pyrenophora teres [7] = experiment: In vivo preventive test on Pyrenophora teres (net blotch on barley); settings: 240 h, 500 ppm of active ingredient, preventive spray on barley, evaluated 10 days after inoculation, read-out: efficacy
How it was run: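 Net blotch spores were sprayed onto barley leaves one day after foliar treatment with water-diluted DMSO/acetone/Tween 80 formulations (solvent-only controls). Plants were kept at 20° C: first 48 hours at 100% relative humidity, then 8 days at 70-80%.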

Sphaerotheca fuliginea = experiment: In vivo preventive test on Sphaerotheca fuliginea (powdery mildew on cucurbits); settings: Podosphaera fuliginea, 192 h; 500 ppm of active ingredient; preventive spray on gherkin; evaluated 8 days after inoculation; read-out: efficacy
How it was run: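 This is a preventive spray test on gherkin seedlings, with compound formulated in DMSO/acetone/Tween 80 in water and solvent-only controls. Spore inoculation followed one day after treatment. Incubation lasted 8 days at 20 °C, 70–80% RH.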

Alternaria brassicae = experiment: In vivo preventive test on Alternaria brassicae (leaf spot on radish or cabbage); settings: 500 ppm of active ingredient, preventive spray on radish or cabbage, evaluated 3 to 4 days after inoculation, read-out: efficacy
How it was run: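 Protective spray on young radish or cabbage: actives in water diluted from DMSO/acetone/Tween 80, with solvent-only controls. Leaves were challenged after 24 h with a spore suspension, and plants were held at 100% RH, 20 °C for 3 to 4 days.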

SMILES | inhibition at 20 ppm (Botrytis cinerea [1]) [%] | inhibition at 20 ppm (Septoria tritici) [%] | inhibition at 20 ppm (Alternaria alternata) [%] | inhibition at 20 ppm (Pyrenophora teres [2]) [%] | pest or weed control at 500 ppm (Botrytis cinerea [3]) [%] | pest or weed control at 500 ppm [4] [%] | inhibition at 20 ppm [5] [%] | chromatographic logP [6] | pest or weed control at 500 ppm (Pyrenophora teres [7]) [%] | pest or weed control at 500 ppm (Sphaerotheca fuliginea) [%] | pest or weed control at 500 ppm (Alternaria brassicae) [%]
O=C(NCC(F)(F)c1ccc(Cl)cc1Cl)c1c(Oc2cccc(C(F)(F)F)c2)nnc2c1CCCC2 [I-189] | 90 to 100 | 90 to 100 | 90 to 100 | 90 to 100 | 90 to 100 | 90 to 100 | 90 to 100 | 4.23 | 80 to 89 | 90 to 100 | 
Cc1ccc(C(F)(F)CNC(=O)c2c(Oc3cccc(C(F)(F)F)c3)nnc3c2COCC3)c(C)c1 [I-122] | 90 to 100 | 90 to 100 | 90 to 100 | 90 to 100 | 90 to 100 | 80 to 89 | 90 to 100 | 3.7 |  | 90 to 100 | 90 to 100
O=C(NCC(F)(F)c1ccc(Cl)cc1Cl)c1c(Oc2cccc(C(F)F)c2)nnc2c1CCCC2 [I-191] | 90 to 100 | 90 to 100 | 90 to 100 | 90 to 100 | 90 to 100 | 90 to 100 | 90 to 100 | 3.73 | 90 to 100 | 90 to 100 | 
O=C(NCCc1ncc(Cl)cn1)c1c(Oc2cccc(C(F)(F)F)c2)nnc2ccccc12 [I-077] | 90 to 100 | 90 to 100 | 90 to 100 | 90 to 100 | 90 to 100 | 70 to 79 | 90 to 100 | 2.91 |  |  | 90 to 100
O=C(NCC(F)(F)c1ccc(Cl)cc1Cl)c1c(Oc2cccc(Cl)c2F)nnc2c1CCCC2 [I-194] | 90 to 100 | 90 to 100 | 90 to 100 | 90 to 100 | 90 to 100 | 90 to 100 | 90 to 100 | 4.05 | 90 to 100 | 90 to 100 | 
Cc1ccc(C(F)(F)CNC(=O)c2c(Oc3cccc(C(F)(F)F)c3)nnc3c2CCCC3)c(C)c1 [I-115] |  | 90 to 100 | 90 to 100 | 90 to 100 | 90 to 100 | 90 to 100 | 90 to 100 | 4.05 | 90 to 100 | 90 to 100 | 90 to 100
O=C(NCCc1ccc2c(c1)CCO2)c1c(Oc2cccc(C(F)(F)F)c2)nnc2ccccc12 [I-081] | 90 to 100 | 70 to 79 | 90 to 100 | 90 to 100 | 90 to 100 | 90 to 100 | 90 to 100 | 3.53 |  |  | 90 to 100
Cc1cc(Br)ccc1C(F)(F)CNC(=O)c1c(Oc2cccc(C(F)(F)F)c2)nnc2c1CCC2 [I-206] | 90 to 100 | 90 to 100 | 90 to 100 | 90 to 100 | 90 to 100 | 90 to 100 | 90 to 100 | 4.17 | 90 to 100 | 90 to 100 | 
Cc1ccc(C(F)(F)CNC(=O)c2c(Oc3cccc(C(F)(F)F)c3)nnc3cc(C4CC4)ccc23)c(C)c1 [I-242] | 90 to 100 | 80 to 89 | 90 to 100 | 90 to 100 | 90 to 100 |  | 90 to 100 | 5.12 | 70 to 79 | 80 to 89 | 90 to 100
Cc1ccc(CCNC(=O)c2c(Oc3cccc(C(F)(F)F)c3)cnc3ccccc23)c(C)c1 [I-002] | 90 to 100 | 90 to 100 | 90 to 100 |  | 90 to 100 |  | 90 to 100 | 4.17 |  | 90 to 100 | 
COc1cc([C@@H](F)CNC(=O)c2c(Oc3cccc(C(F)(F)F)c3)nnc3ccccc23)ccc1Cl (racemic) [I-176] | 90 to 100 | 80 to 89 | 90 to 100 | 90 to 100 |  | 70 to 79 |  | 3.92 | 80 to 89 |  | 90 to 100
Cc1cc(Cl)ccc1C(F)(F)CNC(=O)c1c(Oc2cccc(C3CC3)c2F)nnc2c1CCCC2 [I-147] |  | 90 to 100 | 90 to 100 | 90 to 100 | 90 to 100 | 90 to 100 | 90 to 100 | 4.34 | 90 to 100 | 90 to 100 | 90 to 100
Cc1ccc(C(F)(F)CNC(=O)c2c(Oc3cccc(Br)c3)cnc3nccnc23)c(C)c1 [I-241, 7-(3-bromophenoxy)-N-[2-(2,4-dimethylphenyl)-2,2-difluoro-ethyl]pyrido[2,3-b]pyrazine-8-carboxamide] | 90 to 100 | 90 to 100 | 90 to 100 | 90 to 100 | 90 to 100 | 90 to 100 | 90 to 100 | 3.46 |  |  | 90 to 100
Cc1ccc(C(F)(F)CNC(=O)c2c(Oc3cccc(Cl)c3)cnc3nccnc23)c(C)c1 [I-234] | 90 to 100 | 90 to 100 | 90 to 100 | 90 to 100 | 90 to 100 | 80 to 89 | 90 to 100 | 3.37 |  |  | 90 to 100
Cc1ccc(C(F)(F)CNC(=O)c2c(Oc3cccc(C(F)(F)F)c3)nnc3cc(C4CC4)ccc23)cc1C [I-235] | 90 to 100 | 90 to 100 | 90 to 100 | 90 to 100 | 90 to 100 |  | 90 to 100 | 5 | 80 to 89 | 90 to 100 | 90 to 100
Cc1ccc(C(F)(F)CNC(=O)c2c(Oc3cccc(C4CC4)c3F)cnc3nccnc23)c(C)c1 [I-099] | 90 to 100 | 80 to 89 | 90 to 100 | 90 to 100 | 90 to 100 | 90 to 100 | 90 to 100 | 3.71 |  |  | 90 to 100
